# From patent US20230274799A1, “SYSTEMS AND METHODS FOR PATIENT STRATIFICATION AND IDENTIFICATION OF POTENTIAL BIOMARKERS” (Berg LLC, priority 2016, published 2023)
# Test: Phase I dose-escalation trial, dose limiting toxicities of Coenzyme Q10 in combination with chemotherapy (Arm 2)
# Type: in vivo, human
# From the text: The clinical trial is a multicenter, open-label, non-randomized, dose-escalation study to examine the dose limiting toxicities (DLT) of Coenzyme Q10 administered as a 144-hour continuous intravenous (IV) infusion as monotherapy (treatment Arm 1) and in combination with chemotherapy (treatment Arm 2) in patients with solid tumors. A broad range of solid tumors has been evaluated, including prostate, colon, breast, lung and pancreatic tumors, as shown in Tables 1 and 2 below. Coenzyme Q10 was administered in three consecutive 48 hour doses or two consecutive 72 hour doses, depending on the dose level. Three standard weekly chemotherapy regimens of gemcitabine, 5-fluorouracil, or docetaxel were evaluated in combination with Coenzyme Q10. Eligible patients are 18 years of age or older, afflicted with solid tumors, and relapsed/refractory to standard therapy. 85 patients have been enrolled in the trial. The monotherapy arm received Coenzyme Q10 for 6 days in continuous infusion in 28 day cycles, and the combination arms (gemcitabine, 5-fluorouracil, or docetaxel) were primed for 3 weeks with Coenzyme Q10 before initiation of standard chemotherapy, followed by weekly dosing in a 6 week cycle.
# The study is a standard 3+3 dose escalation design with the dose escalated in successive cohorts of 3 to 6 patients each. […]
structure (smiles),measurement,setting,value
COC1=C(OC)C(=O)C(C/C=C(\C)CC/C=C(\C)CC/C=C(\C)CC/C=C(\C)CC/C=C(\C)CC/C=C(\C)CC/C=C(\C)CC/C=C(\C)CC/C=C(\C)CCC=C(C)C)=C(C)C1=O [Coenzyme Q10],Dose Limiting Toxicity,"DL4 - 110 mg/kg with Gemcitabine 1,000 mg/m^2 (6 enrolled), two consecutive 72 hour infusions, cell wraps r34-r38: None to Date- need 3 more evaluable patients to determine MTD",None to Date-
same,Dose Limiting Toxicity,in vivo,None
